Among the data in patent US20150045445A1, “3-KETO-N-PROPARGYL-1-AMINOINDAN” (TEVA PHARMACEUTICAL INDUSTRIES, LTD., priority 2009, published 2015) are absolute bioavailability and genotoxicity values, retold here.

The conditions of data set [1]: AZILECT Product Label, May 2006; cited from earlier work.
The nature of data set [2]: Genotoxicity of the by-product. The note with it: by-product of rasagiline drug substance production; no test described.

Molecules are shown by their SMILES.

For `C#CCN[C@@H]1CCc2ccccc21` [rasagiline, R(+)-N-propargyl-1-aminoindan], in data set [1], the absolute bioavailability result is “about 36%”. Take `C#CCNC1CC(=O)c2ccccc21` (centres unmarked) [3-keto-N-propargyl-1-aminoindan]: in data set [2], the genotoxicity entry is “not genotoxic”.
